Patent US20250171438A1 (Agios Pharmaceuticals, Inc., priority 2022, published 2025)

biological target: T1, human PAH with the R408W mutation (Homo sapiens, UniProt P00439, R408W); experiment: Cell Based Phenylalanine Flux Assay; conditions: A375 cells expressing human R408W PAH; 24 hrs compound incubation; 13C-Tyrosine by LC-MS; average where tested multiple times; read-out: AC50
T1 construct: expressed in transfected cells
T1 sequence (P00439 1-452 R408W): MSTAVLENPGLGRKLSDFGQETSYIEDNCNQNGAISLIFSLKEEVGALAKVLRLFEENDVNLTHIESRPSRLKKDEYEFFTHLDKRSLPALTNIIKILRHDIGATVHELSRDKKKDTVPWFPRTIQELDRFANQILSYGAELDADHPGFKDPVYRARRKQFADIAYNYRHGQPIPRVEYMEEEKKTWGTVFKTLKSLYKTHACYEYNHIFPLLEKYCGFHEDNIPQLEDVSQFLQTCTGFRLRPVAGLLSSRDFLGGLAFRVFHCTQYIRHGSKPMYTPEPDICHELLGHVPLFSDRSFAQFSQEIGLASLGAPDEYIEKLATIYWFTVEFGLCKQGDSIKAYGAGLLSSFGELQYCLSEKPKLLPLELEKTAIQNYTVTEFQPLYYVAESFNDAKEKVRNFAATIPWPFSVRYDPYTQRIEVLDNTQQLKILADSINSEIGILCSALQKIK

Row | AC50 | SMILES
1 | 1000 to 5000 nM | O=C(CCC1CC1)N1CCc2[nH]cnc2[C@@H]1c1nc2cccc(F)c2s1 [Example 1134, (R)-3-cyclopropyl-1-(4-(7-fluorobenzo[d]thiazol-2-yl)-6,7-dihydro-1H-imidazo[4,5-c]pyridin-5(4H)-yl)propan-1-one]
2 | 500 to 1000 nM | O=C(CC1CC1)N1CCc2[nH]cnc2[C@H]1c1nc2cc(F)ccc2s1 [Example 1135, (S)-2-cyclopropyl-1-(4-(5-fluorobenzo[d]thiazol-2-yl)-6,7-dihydro-1H-imidazo[4,5-c]pyridin-5(4H)-yl)ethanone]
3 | 1000 to 5000 nM | O=C(CC1CC1)N1CCc2[nH]cnc2[C@@H]1c1nc2cc(F)ccc2s1 [Example 1136, (R)-2-cyclopropyl-1-(4-(5-fluorobenzo[d]thiazol-2-yl)-6,7-dihydro-1H-imidazo[4,5-c]pyridin-5(4H)-yl)ethanone]
4 | 500 to 1000 nM | O=C(c1cnn2ccc(Br)cc12)N1CCc2[nH]cnc2[C@H]1c1nc2ccc(F)cc2s1 [Example 1137]
5 | 1000 to 5000 nM | O=C(c1cnn2ccc(Br)cc12)N1CCc2[nH]cnc2[C@@H]1c1nc2ccc(F)cc2s1 [Example 1138, (R)-(5-bromopyrazolo[1,5-a]pyridin-3-yl)(4-(6-fluorobenzo[d]thiazol-2-yl)-6,7-dihydro-1H-imidazo[4,5-c]pyridin-5(4H)-yl)methanone]
6 | 500 to 1000 nM | c1ccc2sc([C@@H]3c4nc[nH]c4CCN3Cc3nccs3)nc2c1 [Example 1139, (S)-2-(5-(thiazol-2-ylmethyl)-4,5,6,7-tetrahydro-1H-imidazo[4,5-c]pyridin-4-yl)benzo[d]thiazole]
7 | 1000 to 5000 nM | c1ccc2sc([C@H]3c4nc[nH]c4CCN3Cc3nccs3)nc2c1 [Example 1140, (R)-2-(5-(thiazol-2-ylmethyl)-4,5,6,7-tetrahydro-1H-imidazo[4,5-c]pyridin-4-yl)benzo[d]thiazole]
8 | > 5000 nM | O=C(c1scnc1Cl)N1CCc2[nH]cnc2[C@@H]1c1nc2ccc(F)cc2s1 [Example 1141]
9 | 500 to 1000 nM | O=C(c1nc(Cl)cs1)N1CCc2[nH]cnc2[C@H]1c1nc2ccc(F)cc2s1 [Example 1142]
10 | 500 to 1000 nM | O=C(c1ncn2ccccc12)N1CCc2[nH]cnc2[C@H]1c1nc2c(F)cccc2s1 [Example 1143, (S)-(4-(4-fluorobenzo[d]thiazol-2-yl)-6,7-dihydro-1H-imidazo[4,5-c]pyridin-5(4H)-yl)(imidazo[1,5-a]pyridin-1-yl)methanone]
11 | > 5000 nM | O=C(c1ncn2ccccc12)N1CCc2[nH]cnc2[C@@H]1c1nc2c(F)cccc2s1 [Example 1144, (R)-(4-(4-fluorobenzo[d]thiazol-2-yl)-6,7-dihydro-1H-imidazo[4,5-c]pyridin-5(4H)-yl)(imidazo[1,5-a]pyridin-1-yl)methanone]
12 | < 500 nM | O=C(CCC1CC1)N1CCc2[nH]cnc2[C@H]1c1nc2ccc(Br)cc2s1 [Example 1145, (S)-1-(4-(6-bromobenzo[d]thiazol-2-yl)-6,7-dihydro-1H-imidazo[4,5-c]pyridin-5(4H)-yl)-3-cyclopropylpropan-1-one]
13 | 500 to 1000 nM | O=C(CCC1CC1)N1CCc2[nH]cnc2[C@@H]1c1nc2ccc(Br)cc2s1 [Example 1146, (R)-1-(4-(6-bromobenzo[d]thiazol-2-yl)-6,7-dihydro-1H-imidazo[4,5-c]pyridin-5(4H)-yl)-3-cyclopropylpropan-1-one]
14 | 500 to 1000 nM | O=C(CC1CC1)N1CCc2[nH]cnc2[C@@H]1c1nc2ccc(Br)cc2s1 [Example 1147, (R)-1-(4-(6-bromobenzo[d]thiazol-2-yl)-6,7-dihydro-1H-imidazo[4,5-c]pyridin-5(4H)-yl)-2-cyclopropylethanone]
15 | < 500 nM | O=C(CC1CC1)N1CCc2[nH]cnc2[C@H]1c1nc2ccc(Br)cc2s1 [Example 1148, (S)-1-(4-(6-bromobenzo[d]thiazol-2-yl)-6,7-dihydro-1H-imidazo[4,5-c]pyridin-5(4H)-yl)-2-cyclopropylethanone]
16 | < 500 nM | O=C(c1cnn2c(Br)cccc12)N1CCc2[nH]cnc2[C@H]1c1nc2ccc(F)cc2s1 [Example 1149]
17 | > 5000 nM | O=C(c1cnn2c(Br)cccc12)N1CCc2[nH]cnc2[C@@H]1c1nc2ccc(F)cc2s1 [Example 1150, (R)-(7-bromopyrazolo[1,5-a]pyridin-3-yl)(4-(6-fluorobenzo[d]thiazol-2-yl)-6,7-dihydro-1H-imidazo[4,5-c]pyridin-5(4H)-yl)methanone]
18 | < 500 nM | O=C(c1cnn2ccc(Cl)cc12)N1CCc2[nH]cnc2[C@H]1c1nc2ccc(F)cc2s1 [Example 1151]

Continued, molecule first:

Row | SMILES | AC50
19 | O=C(CCC1CC1)N1CCc2nc[nH]c2[C@@H]1c1nc2c(F)cccc2s1 [Example 1114, (R)-3-cyclopropyl-1-(4-(4-fluorobenzo[d]thiazol-2-yl)-6,7-dihydro-3H-imidazo[4,5-c]pyridin-5(4H)-yl)propan-1-one] | > 5000 nM
20 | CCc1nnc(CCC(=O)N2CCc3[nH]cnc3[C@H]2c2nc3ccccc3s2)s1 [Example 1115] | 500 to 1000 nM
21 | CCc1nnc(CCC(=O)N2CCc3[nH]cnc3[C@@H]2c2nc3ccccc3s2)s1 [Example 1116, (R)-1-(4-(benzo[d]thiazol-2-yl)-6,7-dihydro-1H-imidazo[4,5-c]pyridin-5(4H)-yl)-3-(5-ethyl-1,3,4-thiadiazol-2-yl)propan-1-one] | > 5000 nM
22 | O=C(CC1CC1)N1CCc2[nH]cnc2[C@H]1c1nc2ccc(F)cc2s1 [Example 1117, (S)-2-cyclopropyl-1-(4-(6-fluorobenzo[d]thiazol-2-yl)-6,7-dihydro-1H-imidazo[4,5-c]pyridin-5(4H)-yl)ethanone] | < 500 nM
23 | O=C(CC1CC1)N1CCc2[nH]cnc2[C@@H]1c1nc2ccc(F)cc2s1 [Example 1118, (R)-2-cyclopropyl-1-(4-(6-fluorobenzo[d]thiazol-2-yl)-6,7-dihydro-1H-imidazo[4,5-c]pyridin-5(4H)-yl)ethanone] | > 5000 nM
24 | O=C(c1nccs1)N1CCc2nc[nH]c2[C@@H]1c1nc2c(F)cccc2s1 [Example 1119, (R)-(4-(4-fluorobenzo[d]thiazol-2-yl)-6,7-dihydro-3H-imidazo[4,5-c]pyridin-5(4H)-yl)(thiazol-2-yl)methanone] | 1000 to 5000 nM
25 | O=C(c1nccs1)N1CCc2nc[nH]c2[C@H]1c1nc2c(F)cccc2s1 [Example 1120, (S)-(4-(4-fluorobenzo[d]thiazol-2-yl)-6,7-dihydro-3H-imidazo[4,5-c]pyridin-5(4H)-yl)(thiazol-2-yl)methanone] | 500 to 1000 nM
26 | O=C(CCc1nccs1)N1CCc2[nH]cnc2[C@H]1c1nc2cccc(Br)c2s1 [Example 1121, (S)-1-(4-(7-bromobenzo[d]thiazol-2-yl)-6,7-dihydro-1H-imidazo[4,5-c]pyridin-5(4H)-yl)-3-(thiazol-2-yl)propan-1-one] | 500 to 1000 nM
27 | O=C(CCc1nccs1)N1CCc2[nH]cnc2[C@@H]1c1nc2cccc(Br)c2s1 [Example 1122, (R)-1-(4-(7-bromobenzo[d]thiazol-2-yl)-6,7-dihydro-1H-imidazo[4,5-c]pyridin-5(4H)-yl)-3-(thiazol-2-yl)propan-1-one] | 1000 to 5000 nM
28 | O=C(c1ccno1)N1CCc2[nH]cnc2[C@H]1c1nc2ccccc2s1 [Example 1123] | 500 to 1000 nM
29 | O=C(c1ccno1)N1CCc2[nH]cnc2[C@@H]1c1nc2ccccc2s1 [Example 1124, (R)-(4-(benzo[d]thiazol-2-yl)-6,7-dihydro-1H-imidazo[4,5-c]pyridin-5(4H)-yl)(isoxazol-5-yl)methanone] | > 5000 nM
30 | Cc1ccn2ncc(C(=O)N3CCc4[nH]cnc4[C@H]3c3nc4ccccc4s3)c2c1 [Example 1125] | 1000 to 5000 nM
31 | Cc1ccn2ncc(C(=O)N3CCc4[nH]cnc4[C@@H]3c3nc4ccccc4s3)c2c1 [Example 1126, (R)-(4-(benzo[d]thiazol-2-yl)-6,7-dihydro-1H-imidazo[4,5-c]pyridin-5(4H)-yl)(5-methylpyrazolo[1,5-a]pyridin-3-yl)methanone] | 1000 to 5000 nM
32 | O=C(c1cc2cccnn2c1)N1CCc2[nH]cnc2[C@H]1c1nc2ccccc2s1 [Example 1127] | 500 to 1000 nM
33 | O=C(c1cc2cccnn2c1)N1CCc2[nH]cnc2[C@@H]1c1nc2ccccc2s1 [Example 1128, (R)-(4-(benzo[d]thiazol-2-yl)-6,7-dihydro-1H-imidazo[4,5-c]pyridin-5(4H)-yl)(pyrrolo[1,2-b]pyridazin-6-yl)methanone] | > 5000 nM
34 | O=C(c1nc2ccccc2o1)N1CCc2[nH]cnc2[C@H]1c1nc2ccccc2s1 [Example 1129, (S)-benzo[d]oxazol-2-yl(4-(benzo[d]thiazol-2-yl)-1,4,6,7-tetrahydro-5H-imidazo[4,5-c]pyridin-5-yl)methanone] | < 500 nM
35 | O=C(c1nc2ccccc2o1)N1CCc2[nH]cnc2[C@@H]1c1nc2ccccc2s1 [Example 1130, (R)-benzo[d]oxazol-2-yl(4-(benzo[d]thiazol-2-yl)-1,4,6,7-tetrahydro-5H-imidazo[4,5-c]pyridin-5-yl)methanone] | 1000 to 5000 nM
36 | O=C(c1nc2ccccc2[nH]1)N1CCc2[nH]cnc2[C@H]1c1nc2ccccc2s1 [Example 1131] | 500 to 1000 nM
37 | O=C(c1nc2ccccc2[nH]1)N1CCc2[nH]cnc2[C@@H]1c1nc2ccccc2s1 [Example 1132, (R)-(1H-benzo[d]imidazol-2-yl)(4-(benzo[d]thiazol-2-yl)-6,7-dihydro-1H-imidazo[4,5-c]pyridin-5(4H)-yl)methanone] | 1000 to 5000 nM
38 | O=C(CCC1CC1)N1CCc2[nH]cnc2[C@H]1c1nc2cccc(F)c2s1 [Example 1133, (S)-3-cyclopropyl-1-(4-(7-fluorobenzo[d]thiazol-2-yl)-6,7-dihydro-1H-imidazo[4,5-c]pyridin-5(4H)-yl)propan-1-one] | 500 to 1000 nM
